Measurements reported in patent US20240116856A1 (Young BioPharma, LLC, priority 2020, published 2024).
Several values for one entry are separate records, joined by “and”; a condition that tells them apart may be missing. Identical values can stand only once. Entries after “also recorded” stand apart in the source; their conditions may differ. Like-named read-outs stand apart in the source and are kept apart here. One block for each molecule: values may come before it.

Legend:
Mouse plasma stability = conditions: C57BL6 mouse plasma; 2 μM (YB-2), 5 μM (controls)
TRPV1 [1] = molecular target: TRPV1 (Rattus norvegicus, UniProt O35433); conditions: read-out: EC50 in Ca2+ influx assay, cited from earlier work
[2] = literature; cited from earlier work
[3] = test system: Src protein activation in MDA-MB-231 cells; test: Cancer cell immunocytochemistry assay, Phospho-Src (Y416), MDA-MB-231; assay type: cell-based, human
Method: (§1) Human cancer cells (15,000 cells/well) in 96 well half area microplate (Cat #3882, Corning) were incubated overnight at 37° C., then compounds or DMSO control were added to the cell culture and incubated at 37° C. for 1-6 h. The cells were sequentially fixed with 4% formalin, permeabilized with 0.5% Triton X-100, blocked with 5% BSA in PBS, incubated with Human Phospho-Src (Y416) Antibody (Cat #MAB2685, R&D Systems) at rt for 2 h, incubated with the secondary antibody Goat Ant-Rabbit IgG H&L (Alexa Fluor 488) (Cat #ab150077, abeam) for 45 min, and incubated with DAPI (Cat #D9542, Sigma-Aldrich) for 5 min. Finally, the cells were washed and covered with PBS. The cell images were visualized on an inverted fluorescence microscope (Leica DMIL Fluorescent Inverted Microscope with Digital Camera, Leica Microsystems). Pictures were taken [FIGS. 14A-C. Green: Human Phospho-Src (Y416), the activated form of the Src protein; Blue: DAPI (stain nucleus of cell)]. The fluorescence intensity values from 5 random cells were averaged, subtracted by the background value (area between cells) and the blank value [the blank control without the Human Phospho-Src (Y416) Antibody], then plotted as percentage against the DMSO control to indicate the effects of compound treatment on the cellular Src kinase phosphorylation levels in the cancer cells (FIGS. 15A-D).

human TRPA1 = molecular target: T1, human TRPA1 (Homo sapiens, UniProt O75762); test: In vitro Ca2+ flux counter-screen in human TRPA1 overexpressing cells; assay type: cell-based; conditions: counter-screen; read-out: TRPA1 EC50
T1 construct: expressed in transfected cells; host or cells: overexpressing cells

OVCAR-8 = test: Human cancer cell growth inhibition assay (ATP assay), OVCAR-8; assay type: cell-based; conditions: for IC50: Homo sapiens, OVCAR-8, 96 h, 4 days, Means±SEM from three independent experiments, read-out: OVCAR-8, IC50
NCI-H460 cell invasion = test: Cancer cell invasion assay, NCI-H460; assay type: cell-based, human; conditions: for inhibition of NCI-H460 cell invasion: 24 h
Method: (§2) A cancer cell invasion assay was developed based on literature protocols (Methods 2005, 37, 208; EMBO J 2002, 21, 6289; Cellular Signalling 2012, 24, 1276.). Membrane matrix gel (Cat #A1413201, ThermoFisher) was diluted in ice-cold, serum-free RPMI 1640 Medium (Cat #31800022, ThermoFisher) at a concentration of 0.5-0.6 mg/mL. Then it was added to the upper compartment (100 μL per cup) of millicell inserts (Cat #PI8P01250, ThermoFisher) placed in a 24-well plate (Part no. 229123, Celltreat). The plate was incubated at 37° C. for 2 h to allow the liquid gel to solidify. RPMI 1640 Medium supplemented with 10% FBS (300 μL) was added to the well of the plate (lower compartment) as attractant, then DMSO or compounds were added. Human cancer cells (1×10^5 cells in 200 μL of RPMI 1640 Medium) were added to the upper compartment of the insert, then DMSO or compounds were added. After the plate was incubated at 37° C. for 24 h, the cells were fixed on the lower side of the insert membrane with 4% formaldehyde and stained with 1% crystal violet (Part no. IS12146, Innovating Science). The invaded cells on the lower side of the filter were counted under an inverted microscope equipped with either a 4× or a 10× objective (FIG. 11). The cell numbers from 5 random views were averaged and plotted as percentage against the DMSO control (FIG. 12A).

OVCAR-8 cell invasion = test: Cancer cell invasion assay, OVCAR-8; assay type: cell-based, human
Method: as §2

OVCAR-8 ovarian tumor = test: OVCAR-8 intraperitoneal xenograft in athymic nude mice; assay type: in vivo
Method: OVCAR-8 cells expressing red fluorescent protein were xenografted intraperitoneally in athymic nude mice to form tumors (Mol Cancer Ther 2020, 19, 89). After 4 weeks, mice were dosed with YB-1 or vehicle control (10% N-Methylpyrrolidone-72% PEG400—18% water) for 2 weeks (dosage: 5 mg/kg; ip treatment twice per week). As shown in FIGS. 16A-B, compared to vehicle group, animals treated with YB-1 for 2 weeks had 40% less tumor burden based on average radiant efficiency measured with IVIS and reduced approximately half of the body weight loss (7% average body weight loss for YB-1 treatment group vs. 13% average body weight loss for vehicle group).

MDA-MB-231 cell invasion = test: Cancer cell invasion assay, MDA-MB-231; assay type: cell-based, human; conditions: for inhibition of MDA-MB-231 cell invasion: 24 h
Method: as §2

[4] = test system: Src protein activation in OVCAR-8 cells; test: Cancer cell immunocytochemistry assay, Phospho-Src (Y416), OVCAR-8; assay type: cell-based, human
Method: as §1

MDA-MB-231 = test: Human cancer cell growth inhibition assay (ATP assay), MDA-MB-231; assay type: cell-based; conditions: for IC50: Homo sapiens, MDA-MB-231, 96 h, 4 days, Means±SEM from three independent experiments, read-out: MDA-MB-231, IC50
NCI-H460 = test: Human cancer cell growth inhibition assay (ATP assay), NCI-H460; assay type: cell-based; conditions: for IC50: Homo sapiens, NCI-H460, 96 h, 4 days, Means±SEM from three independent experiments, read-out: NCl-H460, IC50
[5] = test system: Src protein activation in NCI-H460 cells; test: Cancer cell immunocytochemistry assay, Phospho-Src (Y416), NCI-H460; assay type: cell-based, human
Method: as §1

human TRPV3 = molecular target: T2, human TRPV3 (Homo sapiens, UniProt Q8NET8); test: In vitro Ca2+ flux counter-screen in human TRPV3 overexpressing cells; assay type: cell-based; conditions: counter-screen; read-out: TRPV3 EC50
T2 construct: expressed in transfected cells; host or cells: overexpressing cells
T2 sequence (Q8NET8 1-790): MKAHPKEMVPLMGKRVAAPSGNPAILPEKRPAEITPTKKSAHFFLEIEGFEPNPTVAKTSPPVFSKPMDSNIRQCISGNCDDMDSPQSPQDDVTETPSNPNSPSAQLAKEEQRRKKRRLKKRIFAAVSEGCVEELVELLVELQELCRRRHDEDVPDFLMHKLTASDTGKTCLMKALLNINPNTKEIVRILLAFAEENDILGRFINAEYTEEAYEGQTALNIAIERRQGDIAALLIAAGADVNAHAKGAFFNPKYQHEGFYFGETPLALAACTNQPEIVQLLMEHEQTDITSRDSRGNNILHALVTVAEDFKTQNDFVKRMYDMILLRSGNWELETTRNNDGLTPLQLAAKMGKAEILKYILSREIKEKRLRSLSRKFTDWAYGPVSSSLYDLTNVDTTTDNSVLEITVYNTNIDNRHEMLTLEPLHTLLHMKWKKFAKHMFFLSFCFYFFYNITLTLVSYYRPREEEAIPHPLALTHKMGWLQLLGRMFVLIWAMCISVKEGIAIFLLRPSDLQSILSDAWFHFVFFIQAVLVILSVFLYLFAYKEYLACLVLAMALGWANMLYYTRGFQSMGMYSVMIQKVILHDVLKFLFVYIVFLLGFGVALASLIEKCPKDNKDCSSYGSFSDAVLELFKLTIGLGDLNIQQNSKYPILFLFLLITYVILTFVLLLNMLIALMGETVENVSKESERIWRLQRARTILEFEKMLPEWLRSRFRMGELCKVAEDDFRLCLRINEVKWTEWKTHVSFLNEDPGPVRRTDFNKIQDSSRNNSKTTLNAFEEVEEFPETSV

[6] = intraplantar
TRPV1 [7] = molecular target: T3, TRPV1 (Mus musculus, UniProt Q704Y3); test: Ca2+ imaging of primary mouse dorsal root ganglion (DRG) neurons, TRPV1 desensitization; assay type: cell-based; conditions: then capsaicin 0.5 μM
T3 construct: DRG was isolated from male and female mice expressing GCaMP6f in neurons; endogenous in cells; host or cells: dissociated primary DRG neurons from GCaMP6f-expressing mice

[8] = both, mouse, in vivo, 1 min
human TRPV1 = molecular target: T4, human TRPV1 (Homo sapiens, UniProt Q8NER1); test: In vitro Ca2+ flux assay in human TRPV1 transfected HEK 293 cells; assay type: cell-based; conditions: Means±SEM from three independent experiments; read-out: TRPV1 EC50
T4 construct: DYK (FLAG) tag from vector pcDNA3.1+/C-(K)DYK (C); host or cells: FreeStyle 293-F cells (HEK 293), transient transfection

[9] = YB-1 15 μM, capsaicin 50 μM, 1-6 h
[10] = 5 mg/kg ip twice per week for 2 weeks
[11] = first treatment capsaicin 0.5 μM, YB-11 0.5 μM or YB-16 1.0 μM, paired t-test

T4 sequence (Q8NER1 whole entry): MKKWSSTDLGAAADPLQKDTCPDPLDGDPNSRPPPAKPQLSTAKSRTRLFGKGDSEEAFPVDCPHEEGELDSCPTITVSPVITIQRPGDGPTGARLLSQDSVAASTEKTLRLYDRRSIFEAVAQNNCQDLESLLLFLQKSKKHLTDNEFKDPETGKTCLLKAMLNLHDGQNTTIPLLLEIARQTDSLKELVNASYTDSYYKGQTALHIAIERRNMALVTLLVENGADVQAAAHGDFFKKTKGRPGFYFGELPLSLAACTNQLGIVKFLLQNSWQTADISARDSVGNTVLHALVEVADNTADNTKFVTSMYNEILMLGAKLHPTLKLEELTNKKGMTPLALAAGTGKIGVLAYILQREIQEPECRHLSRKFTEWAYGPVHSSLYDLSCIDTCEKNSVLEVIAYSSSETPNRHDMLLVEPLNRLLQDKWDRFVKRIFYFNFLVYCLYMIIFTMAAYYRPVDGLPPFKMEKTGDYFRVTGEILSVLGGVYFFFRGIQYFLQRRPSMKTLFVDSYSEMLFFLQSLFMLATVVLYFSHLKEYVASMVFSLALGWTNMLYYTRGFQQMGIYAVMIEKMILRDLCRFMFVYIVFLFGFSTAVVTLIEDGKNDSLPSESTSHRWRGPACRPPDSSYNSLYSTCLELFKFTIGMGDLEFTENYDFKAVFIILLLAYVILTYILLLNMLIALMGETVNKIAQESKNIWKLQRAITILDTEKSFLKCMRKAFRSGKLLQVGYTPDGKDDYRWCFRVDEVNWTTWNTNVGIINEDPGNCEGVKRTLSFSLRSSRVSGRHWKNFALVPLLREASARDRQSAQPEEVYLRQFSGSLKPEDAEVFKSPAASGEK
T1 sequence (O75762 whole entry): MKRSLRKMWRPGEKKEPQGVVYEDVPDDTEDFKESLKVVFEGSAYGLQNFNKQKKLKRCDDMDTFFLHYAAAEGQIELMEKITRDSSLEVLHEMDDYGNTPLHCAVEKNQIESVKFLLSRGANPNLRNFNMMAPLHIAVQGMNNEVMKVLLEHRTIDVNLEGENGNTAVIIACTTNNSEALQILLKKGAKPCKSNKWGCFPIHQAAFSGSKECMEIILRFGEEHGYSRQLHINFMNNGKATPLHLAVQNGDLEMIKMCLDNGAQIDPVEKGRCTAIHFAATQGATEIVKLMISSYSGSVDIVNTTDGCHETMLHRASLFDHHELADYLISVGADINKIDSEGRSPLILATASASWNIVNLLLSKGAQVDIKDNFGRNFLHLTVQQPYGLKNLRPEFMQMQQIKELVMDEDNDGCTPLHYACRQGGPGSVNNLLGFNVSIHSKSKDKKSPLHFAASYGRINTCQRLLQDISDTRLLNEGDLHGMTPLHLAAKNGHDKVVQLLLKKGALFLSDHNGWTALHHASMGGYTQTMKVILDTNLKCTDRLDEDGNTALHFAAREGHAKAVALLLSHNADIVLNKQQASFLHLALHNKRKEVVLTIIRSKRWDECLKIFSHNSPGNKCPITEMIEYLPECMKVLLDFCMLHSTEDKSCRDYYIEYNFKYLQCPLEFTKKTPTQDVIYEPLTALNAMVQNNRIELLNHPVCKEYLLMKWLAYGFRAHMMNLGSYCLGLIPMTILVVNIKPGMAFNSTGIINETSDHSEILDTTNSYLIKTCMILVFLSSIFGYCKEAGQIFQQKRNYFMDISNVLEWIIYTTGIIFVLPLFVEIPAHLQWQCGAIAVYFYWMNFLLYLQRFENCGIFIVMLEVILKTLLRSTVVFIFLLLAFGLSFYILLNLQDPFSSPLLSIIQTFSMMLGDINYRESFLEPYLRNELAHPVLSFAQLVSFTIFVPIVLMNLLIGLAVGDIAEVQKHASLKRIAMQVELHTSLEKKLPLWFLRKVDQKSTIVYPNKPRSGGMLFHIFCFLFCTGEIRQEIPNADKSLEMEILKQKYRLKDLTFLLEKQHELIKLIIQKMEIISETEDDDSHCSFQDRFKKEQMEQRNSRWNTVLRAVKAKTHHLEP
T3 sequence (Q704Y3 whole entry): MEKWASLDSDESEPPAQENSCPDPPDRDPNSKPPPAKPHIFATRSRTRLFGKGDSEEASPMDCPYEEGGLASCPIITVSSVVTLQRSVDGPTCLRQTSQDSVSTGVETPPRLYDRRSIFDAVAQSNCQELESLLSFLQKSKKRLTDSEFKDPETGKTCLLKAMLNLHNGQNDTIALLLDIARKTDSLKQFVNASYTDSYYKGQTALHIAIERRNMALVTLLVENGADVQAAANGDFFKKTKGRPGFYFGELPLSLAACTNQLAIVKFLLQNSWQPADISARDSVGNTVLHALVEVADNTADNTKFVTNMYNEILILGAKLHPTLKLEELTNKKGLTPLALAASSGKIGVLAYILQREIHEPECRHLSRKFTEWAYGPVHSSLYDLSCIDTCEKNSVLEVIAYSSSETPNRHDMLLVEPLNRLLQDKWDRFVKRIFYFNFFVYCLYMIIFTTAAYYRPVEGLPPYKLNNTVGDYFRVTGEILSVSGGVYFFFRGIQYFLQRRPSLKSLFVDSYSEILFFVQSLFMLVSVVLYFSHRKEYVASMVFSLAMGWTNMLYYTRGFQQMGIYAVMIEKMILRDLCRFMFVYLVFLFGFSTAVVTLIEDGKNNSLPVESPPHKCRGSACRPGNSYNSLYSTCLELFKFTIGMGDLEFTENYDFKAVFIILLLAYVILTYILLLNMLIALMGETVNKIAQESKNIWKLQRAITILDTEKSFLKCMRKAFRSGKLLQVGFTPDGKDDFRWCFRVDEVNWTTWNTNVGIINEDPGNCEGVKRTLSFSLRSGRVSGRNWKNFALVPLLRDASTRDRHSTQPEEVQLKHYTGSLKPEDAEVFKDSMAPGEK
TRPV1 (Rattus norvegicus, UniProt O35433), sequence (O35433 whole entry): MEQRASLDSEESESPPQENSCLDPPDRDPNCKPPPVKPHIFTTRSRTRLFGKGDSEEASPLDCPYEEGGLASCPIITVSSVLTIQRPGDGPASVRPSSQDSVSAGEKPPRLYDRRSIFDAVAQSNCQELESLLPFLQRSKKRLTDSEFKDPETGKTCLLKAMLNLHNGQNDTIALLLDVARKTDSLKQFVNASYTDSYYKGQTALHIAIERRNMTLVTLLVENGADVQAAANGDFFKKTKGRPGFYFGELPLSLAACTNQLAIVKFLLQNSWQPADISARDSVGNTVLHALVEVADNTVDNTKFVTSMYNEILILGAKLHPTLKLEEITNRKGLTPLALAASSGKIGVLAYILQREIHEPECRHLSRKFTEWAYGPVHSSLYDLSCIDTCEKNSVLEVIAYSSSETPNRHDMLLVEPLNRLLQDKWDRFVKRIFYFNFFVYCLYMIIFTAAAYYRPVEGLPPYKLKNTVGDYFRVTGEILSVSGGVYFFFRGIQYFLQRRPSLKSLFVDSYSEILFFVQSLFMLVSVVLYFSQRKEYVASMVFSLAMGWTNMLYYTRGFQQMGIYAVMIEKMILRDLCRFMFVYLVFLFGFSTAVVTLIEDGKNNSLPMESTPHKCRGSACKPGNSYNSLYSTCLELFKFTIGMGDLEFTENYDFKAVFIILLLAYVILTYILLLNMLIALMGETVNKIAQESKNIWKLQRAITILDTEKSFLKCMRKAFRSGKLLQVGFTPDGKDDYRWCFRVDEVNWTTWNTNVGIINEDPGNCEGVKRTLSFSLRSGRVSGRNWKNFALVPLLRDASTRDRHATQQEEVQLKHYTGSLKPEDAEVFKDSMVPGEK

% Remaining at T120 (Mouse plasma stability): 0.2% | T1/2 (Mouse plasma stability): 12 min
SMILES: CC[C@H](C)C(=O)O[C@H]1C[C@@H](C)C=C2C=C[C@H](C)[C@H](CC[C@@H]3C[C@@H](O)CC(=O)O3)[C@H]21 [Lovastatin]

SMILES: CCCCCCCCC(=O)NCc1ccc(N)c(OC)c1 [N-[(4-amino-3-methoxyphenyl)methyl]-Nonanamide]
EC50 (TRPV1 [1]; as reported in literature): > 10 µM

% Remaining at T120 (Mouse plasma stability): 20% | T1/2 (Mouse plasma stability): 55 min
SMILES: CC(C)[N+](C)(CCOC(=O)C1c2ccccc2Oc2ccccc21)C(C)C [Propantheline]

SMILES: C=C(C)[C@]12C[C@@H](C)[C@@]34O[C@](Cc5ccccc5)(O[C@@H]1[C@@H]3C=C(COC(=O)Cc1ccc(O)c(OC)c1)C[C@]1(O)C(=O)C(C)=C[C@@H]41)O2 [Resiniferatoxin (RTX), Resiniferatoxin]
solubility in water [2]: insoluble in water

EC50 (human TRPA1): > 10 µM | IC50 (OVCAR-8): 38 µM | IC50 (MDA-MB-231): 38 µM | IC50 (NCI-H460): 11 µM | EC50 (human TRPV3): > 10 µM
SMILES: COc1cc(CNC(=O)CCCC/C=C/C(C)C)ccc1NC(=O)CCCC/C=C/C(C)C [YB-1]
potency in inhibiting Src protein activation compared to capsaicin [3]: at least 3 fold | cellular Src kinase phosphorylation levels [3, 9]: time-dependently reduced the cellular Src kinase phosphorylation levels | potency in growth inhibition compared to capsaicin (OVCAR-8; OVACR-8 cell line): 6 fold | inhibition of NCI-H460 cell invasion (NCI-H460 cell invasion): dose-dependently inhibited | potency in inhibiting cell invasion compared to capsaicin (NCI-H460 cell invasion; NCI-H460): ~10 fold | inhibition of OVCAR-8 cell invasion (OVCAR-8 cell invasion; 24 h): dose-dependently inhibited | potency in inhibiting cell invasion compared to capsaicin (OVCAR-8 cell invasion; OVCAR-8): ~3 fold | average body weight loss (OVCAR-8 ovarian tumor; [10]): 7% | less tumor burden compared to vehicle group (average radiant efficiency, IVIS) (OVCAR-8 ovarian tumor; [10]): 40% | tumor burden in vivo (OVCAR-8 ovarian tumor; FIG. 16): reduces tumor burden in vivo | inhibition of MDA-MB-231 cell invasion (MDA-MB-231 cell invasion): dose-dependently inhibited | potency in inhibiting cell invasion compared to capsaicin (MDA-MB-231 cell invasion; MDA-MB-231): about 4 fold | potency in inhibiting Src protein activation compared to capsaicin [4]: at least 3 fold | cellular Src kinase phosphorylation levels [4, 9]: time-dependently reduced the cellular Src kinase phosphorylation levels | potency in growth inhibition compared to capsaicin (MDA-MB-231; MDA-MB-231 cell line): 10 fold | potency in growth inhibition compared to capsaicin (NCI-H460; NCI-H460 cell line): 18 fold | potency in inhibiting Src protein activation compared to capsaicin [5]: at least 3 fold | cellular Src kinase phosphorylation levels [5, 9]: time-dependently reduced the cellular Src kinase phosphorylation levels

EC50 (human TRPA1): > 10 µM | IC50 (OVCAR-8): 34 ± 12 µM | IC50 (MDA-MB-231): 75 ± 20 µM | IC50 (NCI-H460): 65 ± 15 µM | EC50 (human TRPV3): > 10 µM
SMILES: COc1cc(CNC(=O)CCCC/C=C/C(C)C)ccc1NC(C)=O [YB-9]
cellular Src kinase phosphorylation levels ([3]; at about 40% of IC50 concentration from cell growth inhibition assay, 4 h): significantly reduced the cellular Src kinase phosphorylation levels | inhibition of NCI-H460 cell invasion (NCI-H460 cell invasion): dose-dependently inhibited the NCI-H460 cell invasion from 15 μM to 60 μM | inhibition of MDA-MB-231 cell invasion (MDA-MB-231 cell invasion): dose-dependently inhibited

SMILES: COc1cc(CC(=O)N/C=C/c2ccc(C(F)(F)F)cc2)ccc1O [YB-11]
animal death and sedation in formalin test [6]: No mice treated with YB-16, YB-11 or YB-2 died or experienced sedative reaction | reduction of formalin first phase behavior ([6]; 10 g, 2 hr prior to formalin): 36% | EC50 (human TRPA1): > 10 µM | TRPV1-sensitive neurons showing desensitization (TRPV1 [7]; first treatment 0.5 μM): 67% | area under the curve of the Ca2+ signal of the second (capsaicin) application (TRPV1 [7]; [11]): statistically significant reduction; also recorded: significantly reduced | max Ca2+ signal of the second (capsaicin) application (TRPV1 [7]; [11]): statistically significant reduction; also recorded: significantly reduced | IC50 (OVCAR-8): 65 µM | inhibition of MDA-MB-231 cell invasion (MDA-MB-231 cell invasion): dose-dependently inhibited | MPP [8]: 0.101 mg/mL | IC50 (MDA-MB-231): 129 ± 21 µM | IC50 (NCI-H460): 87 ± 10 µM | EC50 (human TRPV1): < 0.1 µM and 0.012 to 0.048 µM and 0.012 µM | EC50 (human TRPV3): > 10 µM

SMILES: COc1cc(CN(C)C(=O)CCCCC=CC(C)C)ccc1O [capsaicin analog 3d]
EC50 (TRPV1 [1]): > 100 µM
